Reference: patent publication US8440830B2, “Tetrahydro-fused pyridines as histone deacetylase inhibitors” (4SC AG, priority 2007, dated 2013)
Like-named read-outs stand apart in the source and are kept apart here. Each block holds one molecule with its values, some of them ahead of it.

Tests used:
[1] = tested on: histone H3 hyperacetylation in HeLa cervical carcinoma cells; assay: Cellular histone H3 hyperacetylation assay; format: cell-based; details: Homo sapiens, 24 h treatment
Excerpt: To assess the cellular efficacy of a histone deacetylase inhibitor in vitro, an assay is set up in black clear-bottom 96-well plates and optimized for use on the Cellomics “ArrayScan II” platform for a quantitative calculation of histone acetylation. The protocol uses a polyclonal rabbit antibody, specifically binding to acetylated lysine 1-20 (including K 9 and K14) of human histone H3 on fixed cells with an Alexa Fluor 488 labeled goat anti rabbit-IgG used for counterstaining 5×10^3 HeLa cervical carcinoma cells/well (ATCC CCL-2) in 200 μl Dulbecco's modified Eagle's medium (DMEM) containing 10% fetal calf serum are seeded at day 1 in Packard view plates and incubated for 24 h under standard cell culture conditions. On day 2, 1 μl test compound (200× final concentration) is added and incubation continued for further 24 h. On day 3, the culture medium is discarded and attached cells fixed for 15 min at room temperature by addition of 100 μl fixation buffer (3.7% v:v formaldehyde in phosphate buffered saline/PBS). After discarding the fixation buffer and one wash with blocking solution (1% BSA, 0.3% Tween 20 in PBS), cells are permeabilized at room temperature by addition of 100 μl /well permeabilization buffer (30.8 mM NaCl, 0.54 mM Na2HPO4, 0.31 mM KH2PO4, 0.1% v:v Triton X-100) for 15 min at room temperature. After discarding the permeabilization buffer and washing twice with 100 μl/well blocking solution at room temperature, the 1st antibody (anti-K1-20 histone H3 antibody, Calbiochem No. 382158) in blocking solution (50 μl/well) is added. After incubation for 1 h at room temperature, the wells are washed twice at room temperature with 100 μl/well blocking solution before addition of the 2nd antibody (goat-anti-rabbit Alexa Fluor 488; MoBiTec No. A -11008) in blocking solution (50 μl well). After further incubation for 1 h at room temperature, wells are washed twice with 100 μl/well blocking solution at room temperature. Finally, 100 μl/well PBS are added and image analysis performed on the Cellomics “ArrayScan II” platform. For EC50 determination, the percentage of positive cells showing nuclear fluorescence is determined and EC50 calculation done from concentration-effect curves by means of non-linear regression. For calibration, a positive (reference HDAC inhibitors like SAHA or NVP LBH-589) and a negative control were included.

A549 NSCLC cells = assay: Cellular cytotoxicity assay (Alamar Blue), A549; format: cell-based; details: Homo sapiens, 72 h, upper end given as ≧100, read-out: IC50 (μM), cytotoxicity towards A549 NSCLC cells
Method in brief: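 Resazurin-to-resorufin fluorescence (ex 544, em 590 nm, after 4 h) gave viability as % of untreated cells following 72 h compound exposure at 37 °C. Compounds were added in semi-logarithmic dilutions 24 h post-seeding, quadruplicate wells; IC50 fitted by non-linear regression of concentration-effect curves.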

[2] = tested on: fully transformed malignant cancer cell lines; assay: Anti-proliferative activity, selection of cell lines (Alamar Blue); format: cell-based; details: Homo sapiens, 72 h, mean over cell lines, read-out: Mean IC50 values as calculated for fully malignant cancer cell lines
Description: (§1) The anti-proliferative activity of the histone deacetylase inhibitory compounds as described herein, is evaluated using the following cell lines: HeLa and HeLa-KB (cervical carcinoma), H460 (non small cell lung cancer), A549 (non-small cell lung cancer), MCF7 (breast carcinoma), MCF10A (normal, non tumorigenic breast epithelial), MDA-MB468 (breast carcinoma), MDA-MB435 (breast carcinoma), MDA-MB231 (breast carcinoma), SKBR-3 (breast carcinoma), SKOV-3 (ovarial carcinoma), A-2780 (ovarial carcinoma), RKO (colon carcinoma), HCT-15 (colon carcinoma), HCT-116 (colon carcinoma), PC3 (prostate carcinoma), BPH1 (benign prostate hyperplasia), AsPC1 (pancreatic carcinoma), Ca127 (tongue carcinoma), A-431 (vulva carcinoma), Hec1A (endometrial carcinoma), Saos-2 (osteosarcoma), U87MG (glioblastoma), WM266-4 (melanoma), K562 (chronic myeloid leukemia), EOL1 (acute hypereosinophilic myeloid leukemia), CCRF-CEM and CCRF-CEM VCR1000 (acute lymphoblastic leukemia sensitive and resistant towards Vincristine). For quantification of cellular proliferation/living cells the Alamar Blue (Resazurin) cell viability assay is applied (O'Brien et al. Eur J Biochem 267, 5421-5426, 2000). In this assay Resazurin is reduced to the fluorescent resorufine by cellular dehydrogenase activity, correlating with viable, proliferating cells. The examples are dissolved as 20 mM solutions in dimethylsulfoxide (DMSO) and subsequently diluted in semi-logarithmic steps. Cell lines are seeded at respective density into 96 well flat bottom plates in a volume of 200 μl per well. 24 h after seeding 1 μl each of the compound dilutions are added into each well of the 96 well plate. Each compound dilution is tested as quadruplicates. Wells containing untreated control cells are filled with 200 μl DMEM medium containing 0.5% v:v DMSO. The cells are then incubated with the compounds for 72 h at 37° C. in a humidified atmosphere containing 5% carbon dioxide. To determine the viability of the cells, 20 μl of a Resazurin solution (Sigma; 90 mg/l) are added. After 4 h incubation at 37° C. the fluorescence is measured at an extinction of λ=544 nm and an emission of λ=590 nm. For the calculation of the cell viability the emission value from untreated cells is set as 100% viability and the emission rates of treated cells are set in relation to the values of untreated cells. Viabilities are expressed as % values. The corresponding IC50 values of the compounds for cytotoxic activity are determined from the concentration-effect curves by means of non-linear regression.
The anti-proliferative activity of compounds from examples 1, 2, 3, 12 and 150 is evaluated by using a broad selection of non-malignant cell lines and fully transformed malignant cancer cell lines.

[3] = tested on: RKO colon carcinoma cells with conditional p21^waf1 expression; assay: Cell cycle dependent cytotoxicity, RKO exop21 cell system; format: cell-based; details: Homo sapiens, 72 h
Description: as §1
For determination of cell-cycle dependent cytotoxicity, the RKO exop21 cell system is applied (Schmidt et al. Oncogene 19: 2423-2429, 2000). Briefly, RKO cells with/without p21^waf1 expression (2×10^4 cells/well induced, 6×10^3 cells/well not induced) are treated with the compounds for 72 h and metabolic activity quantified as described before. The expression of p21^waf1 was induced by treatment with Pronasterone A, causing a complete proliferation arrest of RKO cells in the G1 and G2 phases of the cell division cycle.

[4] = tested on: acute human T-lymphoblastic leukemia cell line CCRF-CEM; details: about 10.000 unique accession numbers, Peart et al. 2005; cited from earlier work
HDAC11 = biological target: T1, HDAC11 (Homo sapiens, UniProt Q96DB2); details: Kalita et al. 2005; one range for HDAC1, 2, 3 and 11; cited from earlier work
T1 sequence (Q96DB2 1-347): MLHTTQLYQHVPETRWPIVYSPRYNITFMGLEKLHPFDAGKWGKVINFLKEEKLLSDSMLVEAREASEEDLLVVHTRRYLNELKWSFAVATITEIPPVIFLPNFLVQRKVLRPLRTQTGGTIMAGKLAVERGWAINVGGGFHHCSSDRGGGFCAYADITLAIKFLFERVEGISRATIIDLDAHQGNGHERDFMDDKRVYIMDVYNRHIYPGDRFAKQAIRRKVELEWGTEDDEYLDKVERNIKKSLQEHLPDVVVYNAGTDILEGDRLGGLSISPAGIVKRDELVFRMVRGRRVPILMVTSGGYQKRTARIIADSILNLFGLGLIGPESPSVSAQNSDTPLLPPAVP

HDACs 4 to 8 = details: read-out: IC50 HDACs 4 to 8; Kalita et al. 2005; cited from earlier work

EC50 ([1]; read-out: EC50, induction of histone H3 hyperacetylation): 0.15 to 15 µM
EC50 ([1]; read-out: −lg EC50, induction of histone H3 hyperacetylation): 0.251 to 15.8 µM
IC50 [2]: 2.4 to 5.4 µM
Structure (SMILES): Cc1ccc(S(=O)(=O)N2CCc3nc(C(=O)Nc4ccccc4N)sc3C2)cc1 [Example 150, N-(2-aminophenyl)-5-[(4-methylphenyl)sulfonyl]-4,5,6,7-tetrahydro[1,3]-thiazolo[5,4-c]pyridine-2-carboxamide]
IC50 (A549 NSCLC cells): ≥ 0.2 µM
IC50 ([3]; RKO arrested, p21^waf1 expressed, read-out: RKO arrested (p21^waf1 expressed) IC50): 1.1 to 4.9 µM
IC50 ([3]; RKO proliferating, p21^waf1 not induced, read-out: RKO proliferating IC50): 1.1 to 4 µM

Structure (SMILES): O=C(CCCCCCC(=O)Nc1ccccc1)NO [SAHA, suberoylanilide hydroxamic acid]
share of analyzed genes whose expression was changed [4]: 22.1%

Structure (SMILES): Nc1ccccc1NC(=O)c1ccc(CNc2nccc(-c3cccnc3)n2)cc1 [MGCD0103]
IC50 (HDAC11): 0.1 to 2 µM
IC50 (HDACs 4 to 8): > 20 µM
